# Experimental data: publication PMC10970924 (Life, 2024)
# What was measured:
# MCF-7 cells [1] = assay: Cell cycle analysis, Hoechst 33342 flow cytometry; assay type: cell-based, human; settings: MCF-7, 72 h
# Protocol: MCF-7 cells were seeded at a density of 15,000 cells/mL in a 6-well plate in 3 mL of complete medium. After 24 h, the medium was replaced with one containing the studied compounds and incubated for 72 h. After incubation, cells were stained with Hoechst 33342 (Roche, Basel, Switzerland) at a concentration of 6 μg/mL for 30 min in the CO2 incubator. The nutrient medium over cells containing the floating cells was collected into tubes, and then the remaining adherent cells were trypsinized and added to the tubes with the floating cells. After this, cells were centrifuged and washed with a DPBS buffer. The fluorescence intensity of cells was measured using the flow cytofluorimeter BD FACSCalibur™ (BD Biosciences, Franklin Lakes, NJ, USA). To identify single cells, direct scatter (FS) and side scatter (SS) measurements were used, and cell doublets were excluded from the analysis using pulse processing based on the area-to-pulse width ratio.
# MCF-7 [2] = assay: Proliferation by impedance biosensor (RTCA DP Analyzer); assay type: cell-based; settings: Homo sapiens, MCF7, 72 h, incubation three days, read-out: IC50 inhibitory concentration, MCF-7
# SF-539 = assay: as above; assay type: cell-based; settings: Homo sapiens, SF-539, 72 h, incubation three days, read-out: IC50 inhibitory concentration, SF-539
# Protocol: (§1) The effect of the test compounds on the proliferation of multiple cell lines was assessed in real time using the RTCA DP Analyzer (Roche, Basel, Switzerland). For this purpose, we used specialized E-plates containing wells similar in size to a standard 96-well plate, but their bottoms were covered with microelectrodes to assess impedance. When cells adhere to the microelectrodes, the impedance of the well changes, which allows us to calculate the cell index proportional to the cell number. In the experiment, cells were seeded in the E-plate at densities of 20,000 cells per milliliter (180 μL/well). At 24 h post-cell attachment, 20 μL of compounds at various test concentrations or solvent as a control were introduced, and cells were then cultured with real-time impedance registration for 5 days.
# HCT-116 = assay: as above; assay type: cell-based; settings: Homo sapiens, HCT-116, 72 h, incubation three days, read-out: IC50 inhibitory concentration, HCT-116
# Protocol: as §1
# PC-3 = assay: as above; assay type: cell-based; settings: Homo sapiens, PC-3, 72 h, incubation three days, read-out: IC50 inhibitory concentration, PC-3
# Protocol: as §1
# HSF [3] = assay: as above; assay type: cell-based; settings: Homo sapiens, 72 h, incubation three days, read-out: IC50 inhibitory concentration, HSF
# Protocol: as §1
# MDA-MB-231 [4] = assay: as above; assay type: cell-based; settings: Homo sapiens, MDA-MB-231, 72 h, incubation three days, read-out: IC50 inhibitory concentration, MDA-MB-231
# Protocol: as §1
# MCF-7 [5] = assay: Mitochondrial membrane potential, rhodamine 123 flow cytometry; assay type: cell-based, human; settings: MCF-7, 72 h, concentration corresponding to IC60
# Protocol: Cells were seeded in a 12-well plate at a density of 1 × 10^5 cells/well and incubated for 24 h at 37 °C in a humid atmosphere with 5% CO2 prior to treatment. Cells were bathed in complete DMEM media containing the respective compounds, using a solvent (dH2O/DMSO) as a negative control. After 72 h, the nutrient medium over cells containing the floating cells was collected into tubes, and then the adherent cells were trypsinized and added to the fraction of floating cells. Cell suspensions were then centrifuged, and the pellet was suspended in phosphate-buffered saline (PBS) to a final density of 5 × 10^5 cells/mL. Cell suspension in a volume of 250 μL and 500 nM rhodamine 123 were added to a rounded-well plate, followed by incubation for 30 min at 25° C. Measurements were conducted using flow cytometry on the Millipore Guava EasyCyte HT Flow Cytometer System in a green fluorescent channel.
# MCF-7 cells [6] = assay: Apoptosis induction, Annexin V-FITC/DAPI flow cytometry; assay type: cell-based, human
# Protocol: MCF-7 cells were seeded at a concentration of 15,000 cells/mL in a 6-well plate. Then, 24 h later the cells were treated with different concentrations of DOX-2 for 72 h. The nutrient medium over cells containing the floating cells was collected into tubes, and then the adherent cells were trypsinized and added to the fraction of floating cells. Then, cells were washed, placed in a binding buffer, stained with Annexin V-FITC/DAPI, and analyzed using the flow cytofluorimeter BD FACSCalibur™ (BD Biosciences, Franklin Lakes, NJ, USA). A total of 1% Triton X-100 was used as a control apoptosis inducer.
# [7] = MTS cytotoxicity assay, statements over the cell panel; assay type: cell-based; settings: human, tumor and conditionally normal cells; MTS dose–response curves, high concentrations; read-out: Viable cells remaining
# Protocol: The cytotoxicity of the compounds under study was assessed using MTS assay on cell cultures. Cells were seeded into 96-well plates at a concentration of 10,000–20,000 cells/mL. After 24 h, gradient concentrations of the compounds were added to the culture medium and the plates were incubated for 72 h. Subsequently, the culture medium was replaced with MTS reagents (Sigma-Aldrich, Burlington, MA, USA) (MTS:PMS (0.18:0.0092 mg/mL)) and dissolved in phenol-free RPMI 1640 medium. After 2 h of incubation, the resulting water-soluble formazan was measured using the TECAN Infinite M200 Pro microplate reader at wavelengths of 555/750 nm. As a control, equivalent volumes of the solvents in which each compound was dissolved (dH2O/DMSO) were used. To calculate the percentage of viable cells relative to the control, which was considered 100%, dose-response curves were plotted against the logarithm of the compound concentration. The concentration of the compound at which cell growth is inhibited by 50% relative to the control was taken as the inhibitory concentration IC50 and calculated using Origin Pro software 8.0.1. The study was conducted in triplicates and in three independent repetitions.
# HCT-15 = assay: Colony formation assay; assay type: cell-based; settings: Homo sapiens, HCT-15, 72 h, incubation three days, read-out: Inhibitory concentration IC50, HCT-15
# Protocol: (§2) Cells were cultured in a 24-well plate with 1 mL of DMEM nutrient medium for 24 h. […] The experiment was conducted in triplicate and in two or three independent repetitions. Only solvent was added to the control wells instead of the test compounds. Incubation with the drugs continued for three days, after which the grown colonies were washed with cold PBS solution and fixed in a fixing buffer (10% acetic acid, 10% methanol in distilled water) for 15 min. The colonies were stained with a 0.4% solution of crystal violet in 20% ethanol for 30 min and then washed 3 times with dH2O and analyzed under a microscope. The colonies were then dissolved in 10% acetic acid for 40 min on a shaker, and the absorbance of the lysate was read at 590 nm. Results were expressed as a percentage relative to the control, and a dose–response curve was plotted to determine the IC50 value.
# HSF [8] = assay: Colony formation assay; assay type: cell-based; settings: Homo sapiens, 72 h, incubation three days, read-out: Inhibitory concentration IC50, HSF
# Protocol: as §2
# SNB-19 = assay: Colony formation assay; assay type: cell-based; settings: Homo sapiens, SNB-19, 72 h, incubation three days, read-out: Inhibitory concentration IC50, SNB-19
# Protocol: as §2
# NCI-H322M = assay: Colony formation assay; assay type: cell-based; settings: Homo sapiens, 72 h, incubation three days, read-out: Inhibitory concentration IC50, NCI-H322M
# Protocol: as §2
# MDA-MB-231 [9] = assay: Colony formation assay; assay type: cell-based; settings: Homo sapiens, MDA-MB-231, 72 h, incubation three days, read-out: Inhibitory concentration IC50, MDA-MB-231
# Protocol: as §2
SMILES,Effect on the cell cycle (in words) (MCF-7 cells [1]),IC50 (MCF-7 [2]),IC50 (SF-539),IC50 (HCT-116),IC50 (PC-3),IC50 (HSF [3]),IC50 (MDA-MB-231 [4]),Cells with reduced mitochondrial potential (MCF-7 [5]),"Percentage of cells in early and late apoptosis (MCF-7 cells [6]; MCF-7, 72 h, IC20–IC60 concentrations)","Accumulation of necrotic cells (in words) (MCF-7 cells [6]; MCF-7, concentration corresponding to IC60)",viability at 72 h [7],IC50 (HCT-15),IC50 (HSF [8]),IC50 (SNB-19),IC50 (NCI-H322M),IC50 (MDA-MB-231 [9])
"COc1cccc2c1C(=O)c1c(O)c3c(c(O)c1C2=O)C[C@@](O)(C(=O)CO)C[C@@H]3O[C@H]1C[C@H](N)[C@H](O)[C@H](C)O1 [DOX, Doxorubicin, reference compound]",cell-cycle arrest in the G2M phase,,,,,,,,,,,,,,,
"COc1cccc2c1C(=O)c1c(O)c3c(c(O)c1C2=O)CC(O)(C(=O)CO)CC3OC1CC(NC(=O)/C=C/c2cnc(C)c3c2COC(C)(C)O3)C(O)C(C)O1 (centres unmarked) [DOX-2, (E)-N-(3-hydroxy-2-methyl-6-((3,5,12-trihydroxy-3-(2-hydroxyacetyl)-10-methoxy-6,11-dioxo-1,2,3,4,6,11-hexahydrotetracen-1-yl)oxy)tetrahydro-2H-pyran-4-yl)-3-(2,2,8-trimethyl-4H-[1,3]dioxino[4,5-c]pyridin-5-yl)acrylamide]",cell-cycle arrest in the G2M phase,8.21 ± 2.93 µM,11.6 ± 8.55 µM,1.67 ± 0.02 µM,40.3 ± 13.5 µM,~100 µM,47.6 ± 26.1 µM,up to 27%,up to 25%,no accumulation of necrotic cells,20 to 40%,110 ± 21.9 µM,> 100 µM,1.05 ± 0.34 µM,> 100 µM,0.34 ± 0.06 µM
